Data from patent EP2759295A1, “Foam cell specific Liver X Receptor (LXR) alpha agonist, SIRT1 inhibitors as well as p300 inhibitors as pharmaceutically active agents” (Max-Planck-Gesellschaft zur Förderung der Wissenschaften …, priority 2013, dated 2014).
Read-outs that look alike come from different tables or passages of the source.

How the values were obtained:
[1] = target: T1, LXRα ligand binding domain (LBD) (Homo sapiens, UniProt Q13133); assay: dual luciferase reporter gene assay with LXRα ligand binding domain in HEK-293 cells; assay type: cell-based
T1 construct: expressed in transfected cells; host or cells: HEK-293
T1 sequence (Q13133 164-447): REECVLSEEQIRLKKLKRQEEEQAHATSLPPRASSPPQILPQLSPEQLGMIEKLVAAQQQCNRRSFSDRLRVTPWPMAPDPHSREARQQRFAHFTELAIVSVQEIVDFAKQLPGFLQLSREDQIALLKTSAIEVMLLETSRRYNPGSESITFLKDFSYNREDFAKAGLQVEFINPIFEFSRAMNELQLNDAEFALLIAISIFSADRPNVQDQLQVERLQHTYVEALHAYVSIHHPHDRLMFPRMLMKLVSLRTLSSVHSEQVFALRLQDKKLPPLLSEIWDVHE
Description: The ligand binding domain (LBD) of LXRα (amino acids 164 to 447) or LXRβ (amino acids 154 to 461) was cloned into pBIND [Renilla/Amp] vector (Promega). Selection and amplification were performed in E-coli cells. Purification of the plasmids was performed with a plasmid purification kit (Qiagen). For transfection HEK-293 cells were plated in 96-well plates (TPP) at a density of 3.5 x 10^4 cells/well for 24 h. To investigate the ligand binding on LXRα ligand binding domain, 0.04 ng of renilla luciferase coding plasmide pGL4.75 (Promega), 0.04 ng of LXRα-LBD/GAL4-DBD plasmide and 80 ng of firefly luciferase coding plasmide pGL4.31 (Promega) were used in a total volume of 200 µL for each well. In LXRβ binding assay 40 ng of LXRβ-LBD/GAL4-DBD plasmide were applied in each transfection mix. Transfection was carried out for 4 h with Lipofectamine 2000 Transfection Reagent (Invitrogen) in Opti-MEM medium (Invitrogen). Ligand treatment was performed at different concentrations for 24 h. For lysis and detection dual-luciferase reporter gene assay system (Promega) and POLARstar Omega (BMG LABTECH) were used.

[2] = system: THP-1 macrophages; assay: CellTiter-Glo viability assay in THP-1 macrophages; assay type: cell-based, human
Description: For generating macrophages differentiation was induced by 10^-8 M Phorbol 12-myristate 13-acetate (PMA) (Sigma-Aldrich) for 48 h. Ligand treatment of macrophages was performed for further 24 h. To induce foam cell formation macrophages were treated for additional 48 h with 100 µg/mL modified human oxidized low density lipoprotein (oxLDL) obtained from Source BioScience (RP-048). Ligand treatment was performed simultaneously with foam cell formation. Cholesterol loading and treatment was controlled with Oil Red O staining (Alfa Aeser). To investigate ligand induced effects on cell proliferation of THP-1 macrophages CellTiter-Glo Luminescent Cell Viability Assay (Promega) was utilized.

[3] = system: foam cells; assay: siRNA-mediated LXRα/β knockdown in foam cells with qPCR; assay type: cell-based, human; conditions: 10 µM ligand for 24 h
Description: Target specificity of ligand-dependent gene expression effects was investigated in siRNA-mediated LXRα and β-knockdown foam cells with subsequent qPCR or microarray analysis. Therefore, 2 x 10^5 THP-1 cells/well were differentiated in 24-well plate and induced to foam cells prior to knockdown as described above. Foam cells were transfected using TransIT-TKO transfection reagent (Mirus Bio), for combined knockdown with 15 nM LXRα Silencer Validated siRNA (Ambion, ID 5458) and 15 nM LXRβ Silencer Select Validated siRNA (Ambion, ID s14684) and with 30 nM LXRα or LXRβ for individual knockdowns, respectively. As control we used 30 nM Silencer Select Negative Control #1 (Ambion). Transfection was carried out for 48 h and followed by treatment with 10 µM ligand or vehicle control for 24 h.
Total RNA isolation and purification was performed by using the RNeasy Mini Kit (QIAGEN) and RNase-Free DNase Set (QIAGEN). cDNA was generated by reverse transcription using the High Capacity cDNA Reverse Transcription Kit (Applied Biosystems). Gene expression was quantified using the SYBR Green PCR Master Mix (Applied Biosystems) and ABI 7900HT Fast Real Time PCR System (Applied Biosystems). In each reaction 0.8 ng/µL cDNA and 0.2 µM primers were used. Gene expression was calculated with the ΔΔCt-method. β-Actin was used for normalisation.

[4] = system: foam cells; assay: Western blot of LXRα and APOE content in foam cells; assay type: cell-based, human; conditions: densitometry
Description: Whole cell extracts were harvested from three biological replicates and denaturized for SDS-PAGE (NuPAGE Novex 4-12% Bis-Tris Gels). Proteins were blotted on nitrocellulose Hybond ECL membrane and incubated with strictly validated published antibodies against LXRα (Abcam, ab 41902), APOE (Abcam ab1906), and as housekeeping protein control β-Actin (Santa Cruz Biotechnology, sc-47778, C4). Secondary antibodies were HRP labeled anti-mouse and anti-rabbit (Santa Cruz Biotechnology). After detection with Western Lightning Plus-ECL solution membranes were stripped with Restore Plus Western Blot Stripping Buffer. Densitometry was performed in ImageQuant TL (GE Healthcare). This tool measures quantitatively the optical density and provides more accurate data than simple eye-observations. The calculation of log (protein of interest/ β-Actin) corrects data for loading imbalances.

[5] = system: foam cells; assay: cholesterol content in foam cells (Amplex Red Cholesterol Assay); assay type: cell-based, human; conditions: 10 µM, 48 h
Description: (§1) THP-1 monocytes were plated out into 24-well plates (Nunc) at a density of 2 x 10^5 cells/well. After differentiation and treatment cells were lysed with 100 µL lysis buffer (PBS, 0.25 M NaCl, 1% Triton X-100). Total and free cholesterol were determined using the colorimetric enzymatic Amplex Red Cholesterol Assay Kit (Invitrogen). Triglycerides were quantified by Triglyceride Assay Kit (BioVision). For normalisation protein content was determined with Pierce 660 nm Protein Assay Reagent (Thermo Scientific).

[6] = system: foam cells; assay: triglyceride content in foam cells (Triglyceride Assay Kit); assay type: cell-based, human; conditions: 10 µM, 48 h
Description: as §1

For `C(=C\c1ccc(OCC2CO2)cc1)/c1ccccc1` (stereo not drawn) [compound 1, 2-[[4-[(E)-styryl]phenoxy]-methyl]oxirane], the EC50 ([1]; +DMSO, LXRα reporter gene activation) was 0.035 µM, the Efficacy ([1]; +DMSO, reporter gene transcription vs. T09) was 6% and the “specificity LXRα vs. LXRβ” value ([1]; reporter-gene assays with LXRα and LXRβ LBD) was “characteristic specificity for LXRα”. The “no cytotoxic effects / no reduction of cellular viability up to” value [2] was “up to 50 µM”, the “no cytotoxic effects / no reduction of cellular viability up to” value ([2]; listed as Compound 1) was “up to 25 µM” and the “gene expression of LXRα and ABCA1 after LXRα/β knockdown” value [3] was “higher dependency on the LXRα subtype”. The “protein expression levels of LXRα target genes” value [4] was “increased protein expression levels of LXRα target genes”, the “total and esterified cholesterol content” value [5] was “significant reduction of total and esterified cholesterol content” and the triglyceride levels [6] was “triglyceride levels were not increased”.
